The test system of one series is M. tuberculosis H37Rv. The series can be described thus: microbe, parasite or virus in culture. To be noted: Mycobacterium tuberculosis, H37RV, 168 h, 7 days incubation, resazurin readout, tested 300 to 2.3 µM, read-out: MIC90 M. tuberculosis (REMA). It counts as cell-based, Mycobacterium tuberculosis.
The subject of series [1] is M. tuberculosis H37Rv expressing GFP (H37Rv::pJKD6). Description: microbe, parasite or virus in culture. It counts as cell-based, Mycobacterium tuberculosis. To be noted: Mycobacterium tuberculosis, H37RV, 168 h; read-out: MIC98 M. tuberculosis (GFP).
Series [2] in a line: Cytotoxicity by live imaging (Hoechst 33342 / propidium iodide). In kind it is cell-based. The following applies: mouse. The method, then:
The cytotoxicity of the compounds to BALB/3T3 cells was determined using live imaging following both Hoechst 33342 and propidium iodide staining. Briefly, BALB/3T3 cells were seeded in a 384-well plate and 24 h later, the compounds were added (0, 12.5, 25, 50, and 100 µM) to the culture medium, as well as Hoechst 33342 and propidium iodide (PI). Then, 24 h and 48 h after the compounds were added, live imaging was performed using an In Cell Analyzer 6000 (STP GE Healthcare, Glascow, UK). The cytotoxicity was defined based on the ratio of the population of dead or dying cells (propidium iodide staining) to the total cell population (Hoechst staining), as determined using Columbus software 2.9.1 (PerkinElmer Informatics, WA, USA). The compounds were tested in triplicate. Carfilzomib (500, 250, 140, and 60 nM) was used as the positive control in this assay.

Series [3] can be described thus: Kinetic solubility in PBS by LC-MS/MS. It counts as physicochemical. To be noted: for solubility at 24 h: kinetic from dmso stock; for fold higher solubility in PBS compared to parthenolide: relative to parthenolide. Here is the method: The kinetic solubility was determined using LC–MS/MS analysis in PBS at pH 7.4. Briefly, a 10 mM 100% DMSO solution of the compound was diluted 50-fold either in PBS at pH 7.4 (in triplicate) or in DMSO in polypropylene tubes (n = 3 for PBS and n = 6 for DMSO). The tubes were gently shaken for 24 h at 21 °C. Then, the three PBS tubes and three of the six DMSO tubes were centrifuged for 5 min at 4000 rpm and filtered over 0.45 μm filters (Millex-LH Millipore). Then, 40 μL of each solution was diluted in 160 μL of MeCN and 40 µL of Milli-Q water and transferred to matrix tubes for the LC–MS/MS analysis. The solubility was determined according to the following formula: Solubility (μM) = (AUC (filtered PBS)/AUC (not filtered DMSO)) × 200. The test was validated if (AUC (not filtered DMSO) − AUC (filtered DMSO))/AUC (not filtered DMSO) ≤ 10%.

The test system of series [4] is Staphylococcus aureus (SH1000). Description: microbe, parasite or virus in culture. To be noted: Staphylococcus aureus; 5 h incubation, resazurin readout; tested 300 to 2.3 µM; read-out: MIC90 S. aureus (REMA). It counts as cell-based. (Alamar Blue is a resazurin reagent that responds to reducing activity.)
[5] abbreviates: BALB/3T3 cells, 0, 12.5, 25, 50, 100 µM, imaging at 24 h and 48 h, read-out: Cytotoxicity Balb3T3 CC50.
The mark [6] stands for this setting: aqueous buffer, kinetic solubility, PBS pH 7.4, 24 h at 21 °C, from 10 mM DMSO solution diluted 50-fold, read-out: Solubility.

Molecules are shown by their SMILES. Values after ≈ are worked out from the molar mass of the structure shown. Where two headings read alike, the source gives them in different places. Some results are limits rather than exact numbers.

The term CC50 denotes the concentration giving 50% cytotoxicity. As usually defined, the solubility is the concentration that dissolves in the medium under given conditions. Turning to `C=C1CC[C@H]2C(=C)C(=O)O[C@@H]2[C@@H]2O[C@]2(C)CC[C@H]1N(O)C(=O)OCC(C)C` [Compound 18, Isobutyl-N-hydroxy-N-[(1S,2S,4R,7R,11S)-4-methyl-8,12-dimethylene-13-oxo-3,14-dioxatricyclo[9.3.0.02,4]tetradecan-7-yl]carbamate], in the series on M. tuberculosis H37Rv, the MIC90 worked out at 38 µM (≈ 14.4 µg/mL). Further, in series [1], the MIC stood at 19 µM (≈ 7.21 µg/mL). Also, the CC50 in series [2] is 50 µM. Besides, the concentration in solution in series [3] (21 °C, pH 7.4, aqueous buffer) (solubility at 24 h) was 190 µM (≈ 72.1 µg/mL).

In the case of `C=C1CC[C@H]2C(=C)C(=O)O[C@@H]2[C@@H]2O[C@]2(C)CC[C@H]1N(O)C(=O)OCCOC` [Compound 21, 2-methoxyethyl-N-hydroxy-N-[(1S,2S,4R,7R,11S)-4-methyl-8,12-dimethylene-13-oxo-3,14-dioxatricyclo[9.3.0.02,4]tetradecan-7-yl]carbamate], the MIC90 in the series on M. tuberculosis H37Rv is 150 µM (≈ 57.2 µg/mL). In addition, the MIC in series [1] is 150 to 300 µM (≈ 57.2 to 114 µg/mL). This compound showed a CC50 in series [2] of 100 µM. In series [3] (21 °C, pH 7.4, aqueous buffer), this compound gave a solubility at 24 h of more than 200 µM.

As to `C=C1CC[C@H]2C(=C)C(=O)O[C@@H]2[C@@H]2O[C@]2(C)CC/C1=N/O` [Compound 23, (1S,2S,4R,7Z,11S)-7-hydroxyimino-4-methyl-8,12-dimethylene-3,14-dioxatricyclo[9.3.0.02,4] tetradecan-13-one], the MIC90 in series [4] was more than 300 µM. Further, the concentration in solution in series [3] (21 °C, pH 7.4, aqueous buffer) (solubility at 24 h) came to 186 µM (≈ 51.6 µg/mL).

Consider `C=C1CC[C@H]2C(=C)C(=O)O[C@@H]2[C@@H]2O[C@]2(C)CC[C@H]1N(O)C(=O)NCCCOCC` [Compound 11, 3-(3-ethoxypropyl)-1-hydroxy-1-[(1S,2S,4R,7R,11S)-4-methyl-8,12-dimethylene-13-oxo-3,14-dioxatricyclo[9.3.0.02,4]tetradecan-7-yl]urea], for which, in the series on M. tuberculosis H37Rv, the MIC90 was 150 µM (≈ 61.3 µg/mL). Besides, the MIC in series [1] was determined as 150 µM (≈ 61.3 µg/mL). The CC50 in series [2] was more than 100 µM. The compound also came in with a solubility at 24 h in series [3] (21 °C, pH 7.4, aqueous buffer) of 197 µM (≈ 80.5 µg/mL).

As to `CO[C@H]1/C=C/O[C@@]2(C)Oc3c(C)c(O)c4c(O)c(c(/C=N/N5CCN(C)CC5)c(O)c4c3C2=O)NC(=O)/C(C)=C\C=C\[C@H](C)[C@H](O)[C@@H](C)[C@@H](O)[C@@H](C)[C@H](OC(C)=O)[C@@H]1C` [Rifampicin, reference compound], the MIC90 (with M. tuberculosis H37Rv; in series [4]) was less than 2.3 µM each time. For the same compound, in series [1], the MIC was less than 2.3 µM.

Take `C=C1CC[C@H]2C(=C)C(=O)O[C@@H]2[C@@H]2O[C@]2(C)CC[C@H]1N(O)C(=O)Oc1ccc(F)cc1` [Compound 16, (4-fluorophenyl)-N-hydroxy-N-[(1S,2S,4R,7R,11S)-4-methyl-8,12-dimethylene-13-oxo-3,14-dioxatricyclo[9.3.0.02,4]tetradecan-7-yl]carbamate]: the MIC90 is 75 µM (≈ 31.3 µg/mL) with M. tuberculosis H37Rv and more than 300 µM in series [4]. For the same compound, the MIC in series [1] lay within 38 to 75 µM (≈ 15.9 to 31.3 µg/mL). In addition, in series [2] (setting [5]), the CC50 came out at 25 µM. The solubility at 24 h in series [3] (setting [6]) amounted to 182 µM (≈ 76 µg/mL).

Take `C=C1CC[C@H]2C(=C)C(=O)O[C@@H]2[C@@H]2O[C@]2(C)CC[C@H]1N(O)C(=O)Oc1ccc2c(c1)OCO2` [Compound 20, 1,3-benzodioxol-5-yl-N-hydroxy-N-[(1S,2S,4R,7R,11S)-4-methyl-8,12-dimethylene-13-oxo-3,14-dioxatricyclo[9.3.0.02,4]tetradecan-7-yl]carbamate]: in the series on M. tuberculosis H37Rv, the MIC90 was 75 µM (≈ 33.3 µg/mL). Besides, in series [1], the MIC was in the range of 37.5 to 75 µM (≈ 16.6 to 33.3 µg/mL). Moreover, the CC50 in series [2] (setting [5]) is more than 12.5 µM. The solubility at 24 h in series [3] (setting [6]) turned out to be 182 µM (≈ 80.7 µg/mL).

`C=C1CC[C@H]2C(=C)C(=O)O[C@@H]2[C@@H]2O[C@]2(C)CC[C@H]1N(O)C(=O)Nc1ccc(OC)cc1` [Compound 7, 1-hydroxy-3-(4-methoxyphenyl)-1-[(1S,2S,4R,7R,11S)-4-methyl-8,12-dimethylene-13-oxo-3,14-dioxatricyclo[9.3.0.02,4]tetradecan-7-yl]urea]: in the series with M. tuberculosis H37Rv, the MIC90 was found to be 19 µM (≈ 8.14 µg/mL). For the same compound, in series [1], the MIC is 19 µM (≈ 8.14 µg/mL). The compound also came in with a CC50 in series [2] of 25 µM. Moreover, in series [3] (21 °C, pH 7.4, aqueous buffer), the solubility at 24 h was determined as 184 µM (≈ 78.8 µg/mL).

`C/C1=C\CC[C@@]2(C)O[C@H]2[C@H]2OC(=O)C(C)[C@@H]2CC1` (stereo partly drawn) [Compound 26, (1S,2S,4R,7E,11S)-4,8,12-trimethyl-3,14-dioxatricyclo[9.3.0.02,4]tetradec-7-en-13-one]: in the series with M. tuberculosis H37Rv, the MIC90 was 300 µM (≈ 75.1 µg/mL). Further, the MIC in series [1] is 300 µM (≈ 75.1 µg/mL).

For the compound `C=C1CC[C@H]2C(=C)C(=O)O[C@@H]2[C@@H]2O[C@]2(C)CC[C@H]1N(O)C(=O)Nc1ccc2c(c1)OCO2` [Compound 10, 3-(1,3-benzodioxol-5-yl)-1-hydroxy-1-[(1S,2S,4R,7R,11S)-4-methyl-8,12-dimethylene-13-oxo-3,14-dioxatricyclo[9.3.0.02,4]tetradecan-7-yl]urea], in the series on M. tuberculosis H37Rv, the MIC90 was 38 µM (≈ 16.8 µg/mL). Besides, the MIC in series [1] amounted to 19 µM (≈ 8.41 µg/mL). The CC50 in series [2] was 12.5 µM. The solubility at 24 h in series [3] (21 °C, pH 7.4, aqueous buffer) amounted to 182 µM (≈ 80.5 µg/mL).

Turning to `C=C1CC[C@H]2C(=C)C(=O)O[C@@H]2[C@@H]2O[C@]2(C)CC[C@H]1N(O)C(N)=O` [Compound 9, 1-hydroxy-1-[(1S,2S,4R,7R,11S)-4-methyl-8,12-dimethylene-13-oxo-3,14-dioxatricyclo[9.3.0.02,4]tetradecan-7-yl]urea], the MIC90 with M. tuberculosis H37Rv is approximately 150 µM (≈ 48.4 µg/mL). For the same compound, the MIC in series [1] fell in the range of 75 to 150 µM (≈ 24.2 to 48.4 µg/mL). The CC50 in series [2] is more than 100 µM. This compound had a solubility at 24 h in series [3] (21 °C, pH 7.4, aqueous buffer) of more than 200 µM. The “fold higher solubility in PBS compared to parthenolide” value in series [3] is 1.5 fold.

As for `C=C1CC[C@H]2C(=C)C(=O)O[C@@H]2[C@@H]2O[C@]2(C)CC[C@H]1N(O)C(=O)OCC` [Compound 19, Ethyl-N-hydroxy-N-[(1S,2S,4R,7R,11S)-4-methyl-8,12-dimethylene-13-oxo-3,14-dioxatricyclo[9.3.0.02,4]tetradecan-7-yl]carbamate], in the series on M. tuberculosis H37Rv, the MIC90 is 75 µM (≈ 26.4 µg/mL). Besides, the MIC in series [1] is 75 µM (≈ 26.4 µg/mL). The compound further had a CC50 in series [2] of more than 12.5 µM. Moreover, the solubility at 24 h in series [3] (21 °C, pH 7.4, aqueous buffer) was 198 µM (≈ 69.6 µg/mL).

For the compound `C=C1CC[C@H]2C(=C)C(=O)O[C@@H]2[C@@H]2O[C@]2(C)CC[C@H]1N(O)C(=O)Oc1ccccc1` [Compound 17, Phenyl-N-hydroxy-N-[(1S,2S,4R,7R,11S)-4-methyl-8,12-dimethylene-13-oxo-3,14-dioxatricyclo[9.3.0.02,4]tetradecan-7-yl]carbamate], the MIC90 in the series with M. tuberculosis H37Rv was found to be 38 µM (≈ 15.2 µg/mL). The MIC in series [1] came out at 38 µM (≈ 15.2 µg/mL). The CC50 in series [2] (setting [5]) was 12.5 µM. Moreover, the solubility at 24 h in series [3] (setting [6]) came to 189 µM (≈ 75.5 µg/mL).

In the case of `C=C1CC[C@H]2C(=C)C(=O)O[C@@H]2[C@@H]2O[C@]2(C)CC[C@H]1N(O)C(=O)Nc1ccc(F)cc1` [Compound 8, 3-(4-fluorophenyl)-1-hydroxy-1-[(1S,2S,4R,7R,11S)-4-methyl-8,12-dimethylene-13-oxo-3,14-dioxatricyclo[9.3.0.02,4]tetradecan-7-yl]urea], the MIC90 in the series on M. tuberculosis H37Rv was determined as 19 µM (≈ 7.91 µg/mL). For the same compound, the MIC in series [1] came out at 19 µM (≈ 7.91 µg/mL). Also, the CC50 in series [2] was more than 25 µM. Moreover, the concentration in solution in series [3] (21 °C, pH 7.4, aqueous buffer) (solubility at 24 h) came to 188 µM (≈ 78.3 µg/mL). For the same compound, the “fold higher solubility in PBS compared to parthenolide” value in series [3] stood at 1.3 fold.

Take `C=C1CC[C@H]2C(=C)C(=O)O[C@@H]2[C@@H]2O[C@]2(C)CC[C@H]1N(O)C(=O)OC1CCOCC1` [Compound 22, Tetrahydropyran-4-yl-N-hydroxy-N-[(1S,2S,4R,7R,11S)-4-methyl-8,12-dimethylene-13-oxo-3,14-dioxatricyclo[9.3.0.02,4]tetradecan-7-yl]carbamate]: the MIC90 in the series with M. tuberculosis H37Rv was found to be 75 µM (≈ 30.6 µg/mL). Also, the MIC in series [1] came to 38 µM (≈ 15.5 µg/mL). The CC50 in series [2] is more than 50 µM. Besides, the concentration in solution in series [3] (21 °C, pH 7.4, aqueous buffer) (solubility at 24 h) came to 193 µM (≈ 78.6 µg/mL).

For the origin of these results see paper PMC10744032, “Regioselective and Stereoselective Synthesis of Parthenolide Analogs by Acyl Nitroso-Ene Reaction and Their Biological Evaluation against Mycobacterium tuberculosis” (International Journal of Molecular Sciences, 2023).
